# Experimental data: patent publication US4401660A, “Ester derivatives of 5-O-mycaminosyl tylonolide and method of using same” (Eli Lilly and Company, priority 1981, dated 1983)
# Like-named read-outs stand apart in the source and are kept apart here.
# Key:
# [1] = test system: Pasteurella haemolytica 23C; assay: MIC, broth-dilution microtiter test (Table III); assay type: cell-based; design: unit not given here
# Method: (§1) The MIC's in Table II were determined by standard agar-dilution assays. The MIC's in Table III were obtained using a conventional broth-dilution microtiter test.
# [2] = test system: Pasteurella multocida 22A; assay: MIC, broth-dilution microtiter test (Table III); assay type: cell-based; design: unit not given here
# Method: as §1
# [3] = test system: Pasteurella multocida 60A; assay: MIC, broth-dilution microtiter test (Table III); assay type: cell-based; design: unit not given here; conditions: avian isolate
# Method: as §1
# Streptococcus sp. 80 = assay: MIC, broth-dilution microtiter test (Table III); assay type: cell-based; design: unit not given here
# Method: as §1
# Mycoplasma hyorhinis = assay: MIC, broth-dilution microtiter test (Table III); assay type: cell-based; design: unit not given here
# Method: as §1
# [4] = test system: Pasteurella multocida 40G; assay: MIC, broth-dilution microtiter test (Table III); assay type: cell-based; design: unit not given here
# Method: as §1
# Mycoplasma synoviae = assay: MIC, broth-dilution microtiter test (Table III); assay type: cell-based; design: unit not given here
# Method: as §1
# [5] = test system: Pasteurella haemolytica 41D; assay: MIC, broth-dilution microtiter test (Table III); assay type: cell-based; design: unit not given here
# Method: as §1
# Mycoplasma gallisepticum = assay: MIC, broth-dilution microtiter test (Table III); assay type: cell-based; design: unit not given here
# Method: as §1
# [6] = test system: Pasteurella haemolytica 22C; assay: MIC, broth-dilution microtiter test (Table III); assay type: cell-based; design: unit not given here
# Method: as §1
# Staphylococcus aureus = assay: MIC, broth-dilution microtiter test (Table III); assay type: cell-based; design: unit not given here
# Method: as §1
# [7] = test system: Pasteurella multocida 17E; assay: MIC, broth-dilution microtiter test (Table III); assay type: cell-based; design: unit not given here; conditions: bovine isolate
# Method: as §1
# [8] = test system: Pasteurella multocida 68C; assay: MIC, broth-dilution microtiter test (Table III); assay type: cell-based; design: unit not given here
# Method: as §1
# [9] = test system: Streptococcus pyogenes C203; assay: MIC, standard agar-dilution assay (Table II); assay type: cell-based; design: unit not given here
# Method: as §1
# [10] = test system: Streptococcus pneumoniae Park I; assay: MIC, standard agar-dilution assay (Table II); assay type: cell-based; design: unit not given here
# Method: as §1
# [11] = test system: Staphylococcus epidermidis EPI1; assay: MIC, standard agar-dilution assay (Table II); assay type: cell-based; design: unit not given here
# Method: as §1
# [12] = test system: Staphylococcus aureus S13E; assay: MIC, standard agar-dilution assay (Table II); assay type: cell-based; design: unit not given here
# Method: as §1
# [13] = test system: Streptococcus Group D X66; assay: MIC, standard agar-dilution assay (Table II); assay type: cell-based; design: unit not given here
# Method: as §1
# [14] = test system: Haemophilus influenzae R252; assay: MIC, standard agar-dilution assay (Table II); assay type: cell-based; design: unit not given here; conditions: Haemophilus influenzae R252, ampicillin-resistant strain
# Method: as §1
# [15] = test system: Staphylococcus aureus X1.1; assay: MIC, standard agar-dilution assay (Table II); assay type: cell-based; design: unit not given here
# Method: as §1
# [16] = test system: Staphylococcus epidermidis EPI2; assay: MIC, standard agar-dilution assay (Table II); assay type: cell-based; design: unit not given here
# Method: as §1
# [17] = test system: Staphylococcus aureus V41; assay: MIC, standard agar-dilution assay (Table II); assay type: cell-based; design: unit not given here; conditions: Staphylococcus aureus V41, penicillin-resistant strain
# Method: as §1
# [18] = test system: Haemophilus influenzae Holt; assay: MIC, standard agar-dilution assay (Table II); assay type: cell-based; design: unit not given here; conditions: ampicillin-sensitive strain
# Method: as §1
# [19] = test system: Staphylococcus aureus X400; assay: MIC, standard agar-dilution assay (Table II); assay type: cell-based; design: unit not given here; conditions: Staphylococcus aureus X400, methicillin-resistant strain
# Method: as §1
# [20] = test system: Streptococcus Group D 9960; assay: MIC, standard agar-dilution assay (Table II); assay type: cell-based; design: unit not given here
# Method: as §1
# Pasteurella multocida = assay: Treatment of Pasteurella infections in chicks (Table V); assay type: in vivo, one-day-old chicks; conditions: Pasteurella multocida, sc, 4 h; 30 mg/kg by subcutaneous injection one and four hours post challenge; read-out: Deaths in Treated Chicks/Number Treated (converted)
# Summary of the method: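 One-day-old chicks challenged subcutaneously with avian P. multocida (0.1 ml of 10^-3 dilution of 20-hour tryptose broth culture). Esters given at 30 mg/kg subcutaneously at 1 and 4 hours post challenge. Untreated infected controls, ten per group.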
# [21] = test system: Streptococcus pyogenes C203; assay: ED50 in mice with experimental infections (Table IV); assay type: in vivo; conditions: Streptococcus pyogenes, doses given 1 and 4 hours postinfection
# Summary of the method: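 Mice with experimental infections received test compound twice, at 1 and 4 h postinfection. ED50 is the dose in mg/kg (per administration, ×2) protecting 50% of animals.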
# [22] = C203, oral, read-out: ED50, Oral
# [23] = C203, sc, subcutaneous, read-out: ED50, Subcutaneous
SMILES,minimal inhibitory concentration (MIC) [1],minimal inhibitory concentration (MIC) [2],minimal inhibitory concentration (MIC) [3],minimal inhibitory concentration (MIC) (Streptococcus sp. 80),minimal inhibitory concentration (MIC) (Mycoplasma hyorhinis),minimal inhibitory concentration (MIC) [4],minimal inhibitory concentration (MIC) (Mycoplasma synoviae),minimal inhibitory concentration (MIC) [5],minimal inhibitory concentration (MIC) (Mycoplasma gallisepticum),minimal inhibitory concentration (MIC) [6],minimal inhibitory concentration (MIC) (Staphylococcus aureus),minimal inhibitory concentration (MIC) [7],minimal inhibitory concentration (MIC) [8],minimal inhibitory concentration (MIC) [9],minimal inhibitory concentration (MIC) [10],minimal inhibitory concentration (MIC) [11],minimal inhibitory concentration (MIC) [12],minimal inhibitory concentration (MIC) [13],minimal inhibitory concentration (MIC) [14],minimal inhibitory concentration (MIC) [15],also measured
"CCC1OC(=O)CC(O)C(C)C(OC2OC(C)C(OC(C)=O)C(N(C)C)C2OC(C)=O)C(CC=O)CC(C)C(=O)C=CC(C)=CC1CO (centres unmarked) [Compound 3, 2',4'-Di-O-acetyl-OMT]",6.25,3.12,3.12,< 0.78,3.12,6.25,0.195,6.25,0.78,12.5,1.56,3.12,1.56,0.5,0.25,1,2,2,4,2,"minimal inhibitory concentration (MIC) [16]: 1; minimal inhibitory concentration (MIC) [17]: 4; minimal inhibitory concentration (MIC) [18]: 2; minimal inhibitory concentration (MIC) [19]: 4; minimal inhibitory concentration (MIC) [20]: 2; mortality at 30 mg/kg (Pasteurella multocida): 0%; ED50 [21, 22]: 139 mg/kg; ED50 [21, 23]: > 15 mg/kg"
"CCC1OC(=O)CC(O)C(C)C(OC2OC(C)C(O)C(N(C)C)C2O)C(CC=O)CC(C)C(=O)C=CC(C)=CC1COC(=O)Cc1ccccc1 (centres unmarked) [Compound 29, 23-O-Phenylacetyl-OMT]",3.12,1.56,0.78,0.05,0.195,1.56,0.05,3.12,0.05,3.12,0.097,1.56,1.56,0.06,0.03,0.125,0.125,0.125,1,0.125,"minimal inhibitory concentration (MIC) [16]: 0.25; minimal inhibitory concentration (MIC) [17]: 0.125; minimal inhibitory concentration (MIC) [18]: 0.5; minimal inhibitory concentration (MIC) [19]: 0.125; minimal inhibitory concentration (MIC) [20]: 0.125; mortality at 30 mg/kg (Pasteurella multocida): 0%; ED50 [21, 22]: > 100 mg/kg; ED50 [21, 23]: 5 mg/kg"
